This assay has as its target CRBN-DDB1 (Homo sapiens (Human), UniProt Q96SW2). As to the kind of experiment: CRBN-DDB1 fluorescence polarization (FP) binding assay. As to conditions: displacement of (−)-Thalidomide-Alexa Fluor or Pomalidomide-fluorescein probe; 400 nM CRBN-DDB1, 5 nM probe, 60 min, room temperature. How it is done: Measuring compound ligand binding to CRBN-DDB1 was carried out using an established sensitive and quantitative in vitro fluorescence polarization (FP) based binding assay. […] Compounds were dispensed from serially diluted DMSO stock into black 384-well compatible fluorescence polarization plates using an Echo acoustic dispenser. Compound binding to CRBN-DDB1 was measured by displacement of either a (−)-Thalidomide-Alexa Fluor® or Pomalidomide-fluorescein conjugated probe dye. […] Matching control wells excluding CRBN-DDB1 were used to correct for background fluorescence. Plates were read on an Envision plate reader with appropriate FP filter sets. The corrected S (perpendicular) and P (parallel) values were used to calculate fluorescence polarization (FP) with the following equation: FP=1000*(S−G*P)/(S+G*P).

pKd: −log10 of the molar value.

CRBN-DDB1, sequence (Q96SW2 whole entry): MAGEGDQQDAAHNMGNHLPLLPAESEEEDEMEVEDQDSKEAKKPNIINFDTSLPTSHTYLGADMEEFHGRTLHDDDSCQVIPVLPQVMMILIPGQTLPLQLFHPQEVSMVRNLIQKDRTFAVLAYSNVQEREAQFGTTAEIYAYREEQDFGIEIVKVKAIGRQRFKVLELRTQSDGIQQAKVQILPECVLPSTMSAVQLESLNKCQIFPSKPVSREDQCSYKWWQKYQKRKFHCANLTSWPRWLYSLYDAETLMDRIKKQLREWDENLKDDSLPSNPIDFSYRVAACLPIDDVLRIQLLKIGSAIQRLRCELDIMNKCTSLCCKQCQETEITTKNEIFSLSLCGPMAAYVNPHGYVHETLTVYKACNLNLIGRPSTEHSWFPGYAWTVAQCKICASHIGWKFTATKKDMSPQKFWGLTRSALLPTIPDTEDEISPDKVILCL
CRBN-DDB1, sequence (Q16531 whole entry partner): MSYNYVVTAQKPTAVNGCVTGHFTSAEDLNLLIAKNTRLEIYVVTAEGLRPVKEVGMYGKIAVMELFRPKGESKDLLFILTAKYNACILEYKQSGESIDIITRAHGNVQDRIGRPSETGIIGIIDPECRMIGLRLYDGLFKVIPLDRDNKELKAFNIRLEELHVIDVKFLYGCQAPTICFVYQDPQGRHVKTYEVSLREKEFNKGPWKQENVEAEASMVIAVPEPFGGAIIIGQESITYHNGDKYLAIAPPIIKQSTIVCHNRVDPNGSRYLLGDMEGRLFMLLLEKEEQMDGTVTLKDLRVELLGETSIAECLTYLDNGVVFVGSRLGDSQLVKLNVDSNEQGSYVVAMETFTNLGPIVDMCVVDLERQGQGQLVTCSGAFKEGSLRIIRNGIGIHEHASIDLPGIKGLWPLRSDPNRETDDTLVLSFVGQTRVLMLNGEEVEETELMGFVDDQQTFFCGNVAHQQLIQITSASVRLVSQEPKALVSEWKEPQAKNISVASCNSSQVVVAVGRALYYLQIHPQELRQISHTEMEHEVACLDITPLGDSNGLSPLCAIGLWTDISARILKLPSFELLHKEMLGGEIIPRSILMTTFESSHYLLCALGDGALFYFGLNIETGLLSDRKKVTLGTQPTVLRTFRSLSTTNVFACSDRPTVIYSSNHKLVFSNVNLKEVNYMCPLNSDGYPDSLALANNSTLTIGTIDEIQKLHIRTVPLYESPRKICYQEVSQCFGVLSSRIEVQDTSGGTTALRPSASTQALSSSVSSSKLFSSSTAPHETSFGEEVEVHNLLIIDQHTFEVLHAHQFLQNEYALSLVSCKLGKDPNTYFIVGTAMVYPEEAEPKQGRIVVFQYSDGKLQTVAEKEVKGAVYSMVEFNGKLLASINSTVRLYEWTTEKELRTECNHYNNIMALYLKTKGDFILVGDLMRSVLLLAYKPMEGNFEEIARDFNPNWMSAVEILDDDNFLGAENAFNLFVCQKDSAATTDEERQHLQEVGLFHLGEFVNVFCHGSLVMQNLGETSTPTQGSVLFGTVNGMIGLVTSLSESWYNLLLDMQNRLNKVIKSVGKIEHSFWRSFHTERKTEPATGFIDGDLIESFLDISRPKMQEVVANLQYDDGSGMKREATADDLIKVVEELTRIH

As usually defined, the pKd is −log10 of the Kd, conventionally taken in molar units. The compound `O=C1NC(=O)C2(CC2)CC1N1C(=O)c2ccccc2C1=O` (stereo not shown) [Compound 3, 2-(4,6-dioxo-5-azaspiro[2.5]octan-7-yl)isoindoline-1,3-dione] gave a negative-log Kd (pKd) of 3.00 to 6.00.

Values taken from US10646575B2, “Heterocyclic degronimers for target protein degradation” (C4 Therapeutics, Inc., priority 2016, dated 2020).
